In patent publication US20230240291A1, “FUNGICIDAL COMPOSITIONS” (SYNGENTA CROP PROTECTION AG, priority 2020, published 2023):
*1 amine or outer side, *2 acyl side, *3 side chain or, on linkers, in order; H or OH if unused. Where a SMILES comes first, the peptide text is derived from it. [ ]: non-standard residue; d: D form. ξ: configuration not given here. ξNMeVal(3-OH) = CNC(C(=O)O)C(C)(C)O; NMeF = CN[CH](Cc1ccccc1)C(=O)O; X1 = CCC(C)C(O[*:1])C(=O)[*:2]; NMeV = CN[CH](C(=O)O)C(C)C

Experiments:
Botrytis cinerea = experiment: microbe, parasite or virus in culture; format: cell-based; details: 72 hours
Experimental: Mycelia fragments or conidia suspensions of a fungus, prepared either freshly from liquid cultures of the fungus or from cryogenic storage, are directly mixed into nutrient broth. DMSO solutions of the test compound (max. 10 mg/mL) is diluted with 0.025% Tween20 by factor 50 and 10 µL of this solution is pipetted into a microtiter plate (96-well format). […] The test plates are incubated in the dark at 24° C. and 96% relative humidity (rh). The inhibition of fungal growth is determined photometrically and visually after 3 - 7 days, depending on the pathosystem, and percent antifungal activity relative to the untreated check is calculated.
Conidia of the fungus from cryogenic storage were directly mixed into nutrient broth (PDB potato dextrose broth). After placing a DMSO solution of the test compositions into a microtiter plate (96-well format), the nutrient broth containing the fungal spores was added.

Alternaria solani = format: cell-based; details: 48 hours
Experimental: Mycelia fragments or conidia suspensions of a fungus, prepared either freshly from liquid cultures of the fungus or from cryogenic storage, are directly mixed into nutrient broth. DMSO solutions of the test compound (max. 10 mg/mL) is diluted with 0.025% Tween20 by factor 50 and 10 µL of this solution is pipetted into a microtiter plate (96-well format). The nutrient broth containing the fungal spores/mycelia fragments is then added to give an end concentration of the tested compound. The test plates are incubated in the dark at 24° C. and 96% relative humidity (rh). The inhibition of fungal growth is determined photometrically and visually after 3 - 7 days, depending on the pathosystem, and percent antifungal activity relative to the untreated check is calculated.
Conidia of the fungus from cryogenic storage were directly mixed into nutrient broth (PDB potato dextrose broth). After placing a DMSO solution of the test compositions into a microtiter plate (96-well format) the nutrient broth containing the fungal spores was added.

SMILES: CCC(C)C1NC(=O)C2CCCN2C(=O)C(Cc2ccccc2)N(C)C(=O)C(Cc2ccccc2)NC(=O)C(C(C)C)N(C)C(=O)C(C(C)CC)OC(=O)C(C(C)(C)O)N(C)C(=O)C(CC(C)C)NC(=O)C(C(C)C)N(C)C1=O (centres unmarked) [Aureobasidin A] (cyclo([ξNMeVal(3-OH)][X1][NMeV]F[NMeF]PI[NMeV]L); configuration not given here)
- (A) inhibition (Botrytis cinerea; Aureobasidin A 0.01 ppm alone, fludioxonil table): 22%
- (A) inhibition (Botrytis cinerea; Aureobasidin A 0.01 ppm alone, growth inhibition, photometric, iprodione table): 18%
- (A) inhibition (Botrytis cinerea; Aureobasidin A 0.02 ppm alone, iprodione table): 60%
- (A) inhibition (Alternaria solani; Aureobasidin A 0.005 ppm alone, growth inhibition, photometric): 11%

SMILES: N#Cc1c[nH]cc1-c1cccc2c1OC(F)(F)O2 [Fludioxonil, fludioxonil]
- inhibition at […] (Botrytis cinerea; Botrytis cinerea, Fludioxonil 0.0063 ppm alone, read-out: (B) inhibition): 0%

SMILES: C=CCOC(Cn1ccnc1)c1ccc(Cl)cc1Cl (centres unmarked) [Imazalil]
- (B) inhibition (Alternaria solani; component (B) 0.5 ppm alone): 35%

SMILES: CC(C)NC(=O)N1CC(=O)N(c2cc(Cl)cc(Cl)c2)C1=O [Iprodione, iprodione]
- inhibition at 0.125 ppm (Botrytis cinerea; Botrytis cinerea, Iprodione 0.125 ppm alone, read-out: (B) inhibition): 4%
- inhibition at 0.25 ppm (Botrytis cinerea; Botrytis cinerea, Iprodione 0.250 ppm alone, read-out: (B) inhibition): 0%
